# Results taken from patent US20250163009A1, “BENZOTHIA(DIA)ZEPINE COMPOUNDS FOR TREATMENT OF HBV AND HDV” (Assembly Biosciences, Inc., priority 2022, published 2025).
# pEC50: −log10 of the molar value.
# Test system: HBV
# Experiment: HepG2-NTCP infection protocol, HBeAg quantification by ECL-ELISA
# Format: cell-based
# Settings: HepG2-NTCP cells infected with HBV at MOI 50, compound 24 hours, then 72 hours, HBeAg in supernatant
# Method: HepG2 cells expressing the sodium taurocholate cotransporting polypeptide (HepG2-NTCP) were maintained in culture using HepG2-NTCP growth medium (DMEM (HyClone, Cat #SH30243.02) supplemented with 10% FBS, 150 μg/mL G418 (Alfa Aesar, Cat #J62671), 50 U/mL penicillin-streptomycin (Invitrogen, Cat #15140-122), and 0.5 μg/mL blasticidin (Sigma, Cat #15205)). Prior to infection, the cells were washed twice with 1×DPBS (Invitrogen, Cat #14190-136) and treated with 3 mL of 0.05% trypsin (Invitrogen, Cat #25200-056) to dissociate the cells. Following dissociation, 10 mL of HepG2-NTCP growth medium was added to the cells to neutralize the trypsin and the cells were then centrifuged at 1,300 rpm for 5 minutes. Following centrifugation, the cells were resuspended in 10 mL of HepG2-NTCP growth medium, counted, and then centrifuged at 1,300 rpm for 5 minutes. The cell pellet was resuspended in DMEM supplemented with 5% FBS, 50 U/mL penicillin-streptomycin, 4% PEG-8000 (Hamilton Research, Cat #HR2-515), and 1% DMSO (Sigma, Cat #D4540) to a density of 5.6×10^5 cells/mL and infected with HBV at an MOI of 50. Immediately after infection, 90 μL of the cell/HBV mixture was added to a 96-well plate containing 10 μL of compound and incubated at 37° C. for 24 hours (2% final DMSO concentration). After the incubation, the infection media was removed and replaced with DMEM supplemented with 5% FBS, 50 U/mL penicillin-streptomycin, and 1% DMSO and incubated for an additional 72 hours. At the end of the incubation, the plates were spun at 1,800 rpm for 8 minutes and the supernatant was removed for HBeAg quantification using electrochemiluminescence enzyme-linked immunosorbent assays (ECL-ELISA).
# To conduct the HBeAg ECL-ELISA, Lumitrack high-binding 96-well plates (Greiner, Cat #655074) were treated with 625 ng/mL HBeAg mAb (Biocheck, Cat #70426) in 1×DPBS for 2 hours at 25° C. with shaking. The HBeAg mAb solution was then removed and the plates treated with 1×DPBS containing 0.5% bovine serum albumin (BSA) (Sigma, Cat #A7030-100 g) for 2 hours at 25° C. with shaking. The HBeAg-coated plates were then washed 4 times with 1×DPBS containing 0.05% Tween 20 (DPBS-T) (Thermo Fisher Scientific, Cat #J61544-K2). Following the wash, 90 μL of HRP-conjugated antibody (Fitzgerald, Cat #61-H10K), diluted 1:8,000 in 1×DPBS-T containing 0.5% BSA, was added to the HBeAg-coated plates along with 10 μL of sample. The plates were then incubated for 2 hours at 25° C. with shaking. Following the incubation, the sample was then removed and 200 μL of 1×PBS-T was added and the plates were incubated for 10 minutes at 25° C. with shaking. The plates were then washed 6 times with 1×PBS-T and blotted dry. 80 μL of ECL substrate (Millipore, Cat #WBKLS0500) was then added to the plate and the luminescence was measured using a Tecan M1000 Pro plate reader.
Compound,pEC50 (Hepatitis B virus),pEC50
CCCCC1CN(c2ccccn2)c2cc(SC)c(O/C=C/C(=O)O)cc2S(=O)(=O)N1C (stereo not drawn) [Example 5],6.00 to 7.00,
CCCCC1CN(Cc2ccc(SC)cc2)c2cc(SC)c(O/C=C(\F)C(=O)OCC)cc2S(=O)(=O)N1C (stereo not drawn) [Example 13],6.00 to 7.00,
CCCCC1CN(C2CCNCC2)c2cc(SC)c(O/C=C(\F)C(=O)O)cc2S(=O)(=O)N1C (stereo not drawn) [Example 46],5.30 to 6.00,
CCCCC1CN(C(=O)c2ccccc2)c2cc(SC)c(O/C=C(\F)C(=O)O)cc2S(=O)(=O)N1C (stereo not drawn) [Example 41],5.30 to 6.00,
CCCCC1CN(C2CCCC2)c2cc(SC)c(O/C=C/C(=O)O)cc2S(=O)(=O)N1C (stereo not drawn) [Example 14],6.00 to 7.00,
CCCCC1CN(Cc2ccc(F)cc2)c2cc(SC)c(O/C=C(\F)C(=O)OCC)cc2S(=O)(=O)N1C (stereo not drawn) [Example 12],6.00 to 7.00,
CCCCC1CN(c2ccn(C)n2)c2cc(SC)c(O/C=C(\F)C(=O)O)cc2S(=O)(=O)N1C (stereo not drawn) [Example 53],6.00 to 7.00,
CCCCC1CN(c2cccnc2)c2cc(SC)c(O/C=C/C(=O)O)cc2S(=O)(=O)N1C (stereo not drawn) [Example 4],5.30 to 6.00,
CCCCC1CN(C2CCOCC2)c2cc(SC)c(O/C=C(\F)C(=O)O)cc2S(=O)(=O)N1C (stereo not drawn) [Example 26],6.00 to 7.00,
CCCCC1CN(C(=O)c2ccccc2)c2cc(SC)c(O/C=C(\F)C(=O)OCC)cc2S(=O)(=O)N1C (stereo not drawn) [Example 39],5.30 to 6.00,
CCCCC1CN(C2CC3CCC2C3)c2cc(SC)c(O/C=C(\F)C(=O)O)cc2S(=O)(=O)N1C (stereo not drawn) [Example 45],5.30 to 6.00,
CCCCC1CN(CC2CCC(F)(F)CC2)c2cc(SC)c(O/C=C(\F)C(=O)OCC)cc2S(=O)(=O)N1C (stereo not drawn) [Example 35],6.00 to 7.00,
CCCCC1CN(C2CCN(C(C)=O)CC2)c2cc(SC)c(O/C=C(\F)C(=O)O)cc2S(=O)(=O)N1C (stereo not drawn) [Example 48],5.30 to 6.00,
"CCCCC1CN(C2CCC(F)(F)CC2)c2cc(SC)c(O/C=C(\F)C(=O)O)cc2S(=O)(=O)N1C (single isomer, unassigned) [Example 2a]",,> 7.00
CCCCC1CN(C(C)c2ccccc2)c2cc(SC)c(O/C=C(\F)C(=O)OCC)cc2S(=O)(=O)N1C (stereo not drawn) [Example 44],6.00 to 7.00,
CCCCC1CN(C2CCOC2)c2cc(SC)c(O/C=C(\F)C(=O)O)cc2S(=O)(=O)N1C (stereo not drawn) [Example 50],6.00 to 7.00,

Compound,pEC50 (Hepatitis B virus),pEC50
CCCCC1CN(c2nccs2)c2cc(SC)c(O/C=C(\F)C(=O)O)cc2S(=O)(=O)N1C (stereo not drawn) [Example 49],6.00 to 7.00,
CCCCC1CN(C2CCC(O)CC2)c2cc(SC)c(O/C=C(\F)C(=O)O)cc2S(=O)(=O)N1C (stereo not drawn) [Example 31],6.00 to 7.00,
CCCCC1CN(C2CCOCC2)c2cc(SC)c(O/C=C/C(=O)O)cc2S(=O)(=O)N1C (stereo not drawn) [Example 23],6.00 to 7.00,
CCCCC1CN(C2CCOCC2)c2cc(SC)c(O/C=C(\F)C(=O)OCC)cc2S(=O)(=O)N1C (stereo not drawn) [Example 19],6.00 to 7.00,
CCCCC1CN(c2ncccn2)c2cc(SC)c(O/C=C(\F)C(=O)O)cc2S(=O)(=O)N1C (stereo not drawn) [Example 24],6.00 to 7.00,
"CCCCC1CN(C2CCC(F)(F)CC2)c2cc(SC)c(O/C=C(\F)C(=O)O)cc2S(=O)(=O)N1C (single isomer, unassigned) [Example 2b]",,6.00 to 7.00
CCCCC1CN(C2CCOC2)c2cc(SC)c(O/C=C/C(=O)O)cc2S(=O)(=O)N1C (stereo not drawn) [Example 22],5.30 to 6.00,
CCCCC1CN(C2CCC(N)CC2)c2cc(SC)c(O/C=C(\F)C(=O)O)cc2S(=O)(=O)N1C (stereo not drawn) [Example 51],5.30 to 6.00,
CCCCC1CN(Cc2ccc(F)c(F)c2)c2cc(SC)c(O/C=C(\F)C(=O)OCC)cc2S(=O)(=O)N1C (stereo not drawn) [Example 42],6.00 to 7.00,
CCCCC1CN(C2CCN(C)CC2)c2cc(SC)c(O/C=C(\F)C(=O)O)cc2S(=O)(=O)N1C (stereo not drawn) [Example 47],5.30 to 6.00,
CCCCC1CN(Cc2ccccc2)c2cc(SC)c(O/C=C/C(=O)O)cc2S(=O)(=O)N1C (stereo not drawn) [Example 15],6.00 to 7.00,
CCCCC1CN(C2CCCOC2)c2cc(SC)c(O/C=C(\F)C(=O)OCC)cc2S(=O)(=O)N1C (stereo not drawn) [Example 21],6.00 to 7.00,
CCCC[C@H]1CN(C2CCN(C)C2)c2cc(SC)c(O/C=C(\F)C(=O)O)cc2S(=O)(=O)N1C (stereo in doubt) [Example 55],5.30 to 6.00,
CCCCC1CN(Cc2cccc(SC)c2)c2cc(SC)c(O/C=C(\F)C(=O)OCC)cc2S(=O)(=O)N1C (stereo not drawn) [Example 38],6.00 to 7.00,
CCCC[C@H]1CN([C@@H]2CCN(C)C2)c2cc(SC)c(O/C=C(\F)C(=O)O)cc2S(=O)(=O)N1C (relative stereo) [Example 54],5.30 to 6.00,
CCCCC1CN(C2CCC(F)CC2)c2cc(SC)c(O/C=C(\F)C(=O)OCC)cc2S(=O)(=O)N1C (stereo not drawn) [Example 29],6.00 to 7.00,

# Continued, values first:
pEC50 (Hepatitis B virus),pEC50,Compound
> 7.00,,CCCCC1CN([C@H]2CC[C@H](OC)CC2)c2cc(SC)c(O/C=C(\F)C(=O)O)cc2S(=O)(=O)N1C (stereo partly drawn) [Example 56]
> 7.00,,CCCCC1CN(C2CCCC2)c2cc(SC)c(O/C=C(\F)C(=O)O)cc2S(=O)(=O)N1C (stereo not drawn) [Example 32]
> 7.00,,CC#CCN1CC(CCCC)N(C)S(=O)(=O)c2cc(O/C=C(\F)C(=O)O)c(SC)cc21 (stereo not drawn) [Example 27]
> 7.00,,CCCCC1CN(C2CCC(OC)CC2)c2cc(SC)c(O/C=C(\F)C(=O)OCC)cc2S(=O)(=O)N1C (stereo not drawn) [Example 18]
> 7.00,,C#Cc1ccc(N2CC(CCCC)N(C)S(=O)(=O)c3cc(O/C=C/C(=O)O)c(SC)cc32)cc1 (stereo not drawn) [Example 9]
> 7.00,,CCCCC1CN(C2CCC(F)CC2)c2cc(SC)c(O/C=C(\F)C(=O)O)cc2S(=O)(=O)N1C (stereo not drawn) [Example 30]
> 7.00,,CCCCC1CN(c2ccc(N3CCCC3)cc2)c2cc(SC)c(O/C=C/C(=O)O)cc2S(=O)(=O)N1C (stereo not drawn) [Example 8]
> 7.00,,CCCCC1CN(Cc2cccc(F)c2)c2cc(SC)c(O/C=C(\F)C(=O)O)cc2S(=O)(=O)N1C (stereo not drawn) [Example 40]
> 7.00,,CCCCC1CN(Cc2ccc(F)cc2)c2cc(SC)c(O/C=C(\F)C(=O)O)cc2S(=O)(=O)N1C (stereo not drawn) [Example 10]
> 7.00,,"CCCCC1CN(C2CCC(F)(F)CC2)c2cc(SC)c(O/C=C(\F)C(=O)O)cc2S(=O)(=O)N1C (stereo not drawn) [Example 2, (Z)-3-((3-butyl-5-(4,4-difluorocyclohexyl)-2-methyl-7-(methylthio)-1,1-dioxido-2,3,4,5-tetrahydrobenzo[f][1,2,5]thiadiazepin-8-yl)oxy)-2-fluoroacrylic acid]"
> 7.00,,CCCCC1CN(c2ncccn2)c2cc(SC)c(O/C=C(\F)C(=O)OCC)cc2S(=O)(=O)N1C (stereo not drawn) [Example 20]
> 7.00,,CCCCC1CN(C2CCCCC2)c2cc(SC)c(O/C=C(\F)C(=O)O)cc2S(=O)(=O)N1C (stereo not drawn) [Example 16]
> 7.00,,CCCCC1CN(C(C)c2ccccc2)c2cc(SC)c(O/C=C(\F)C(=O)O)cc2S(=O)(=O)N1C (stereo not drawn) [Example 52]
> 7.00,,CCCCC1CN(c2ccc(N3CCCC3)cc2)c2cc(SC)c(O/C=C(\F)C(=O)O)cc2S(=O)(=O)N1C (stereo not drawn) [Example 11]
> 7.00,,CCCCC1CN(Cc2cc(F)ccc2F)c2cc(SC)c(O/C=C(\F)C(=O)OCC)cc2S(=O)(=O)N1C (stereo not drawn) [Example 33]
> 7.00,,CCCCC1CN(Cc2cc(F)ccc2F)c2cc(SC)c(O/C=C(\F)C(=O)O)cc2S(=O)(=O)N1C (stereo not drawn) [Example 34]
> 7.00,,CCCCC1CN(C2CCC(F)(F)CC2)c2cc(SC)c(O/C=C/C(=O)O)cc2S(=O)(=O)N1C (stereo not drawn) [Example 3]
> 7.00,,CCCCC1CN(Cc2cccc(F)c2)c2cc(SC)c(O/C=C(\F)C(=O)OCC)cc2S(=O)(=O)N1C (stereo not drawn) [Example 37]
> 7.00,,CCCCC1CN(Cc2ccccc2)c2cc(SC)c(O/C=C(\F)C(=O)O)cc2S(=O)(=O)N1C (stereo not drawn) [Example 28]
> 7.00,,CCCCC1CN(C2CCCOC2)c2cc(SC)c(O/C=C(\F)C(=O)O)cc2S(=O)(=O)N1C (stereo not drawn) [Example 25]
> 7.00,,CCCCC1CN(Cc2ccc(F)c(F)c2)c2cc(SC)c(O/C=C(\F)C(=O)O)cc2S(=O)(=O)N1C (stereo not drawn) [Example 43]
> 7.00,,CCCCC1CN(CC2CCC(F)(F)CC2)c2cc(SC)c(O/C=C(\F)C(=O)O)cc2S(=O)(=O)N1C (stereo not drawn) [Example 36]
